Measured values from patent US20030157035A1, “PHOTO STABLE ORGANIC SUNSCREEN COMPOUNDS WITH ANTIOXIDANT PROPERTIES AND COMPOSITIONS OBTAINED THEREFROM” (EM Industries, priority 2001, published 2003).
Read-outs that look alike come from different tables or passages of the source.

Experiments:
[1] = Photostability in Xe-arc solar simulator (loss of UV absorption); conditions: 70% ethanol/30% water, about 250 J/cm^2
Protocol: Compounds are illuminated in a solar simulator incorporating a 1 kw Xe arc lamp, optical bench and illumination chamber. The entire output of the illumination system is focused onto the face of a 1 centimeter Cuvette (an area of 4 cm^2) that contains the dilute samples of a compound of Formula I. The samples experience roughly 250 J/cm^2 of radiation between 290 and 400 nm over a period of two hours. The solutions contain between 0.0056 mg/ml and 2.5 mg/ml.
A solar simulator used for illumination of the samples in the experiments is constructed incorporating a 1 kw Xe arc lamp, optical bench and sample illumination chamber. The lamp output is filtered through a water filter with a course window to remove most of the infrared radiation and optical filters to remove wavelengths below 290 mn. The output of the illumination system is focused onto the face of a 1 cm quartz Cuvette that is thermally equilibrated with a constant temperature water bath at 25° C. A magnetic stir is mounted under the Cuvette so that the samples could be stirred while being illuminated. An electric shutter is controlled by a dark room timer to provide precise control of illumination times. The solar simulator is constructed to provide illumination that closely matches terrestrial sunlight. The solar simulator delivers roughly 250 J/cm^2 over a 2-hour period of illumination in a 290-490 nm range. This irradiance is determined using two nitrobenzaldehyde chemical actinometry. The irradiance is much higher than other solar simulator systems which typically illuminate a large area in order to illuminate many samples simultaneously rather than being focused down to a very small area.
(§1) Each sunscreen compound is dissolved in 70% ethanol/30% water and the UV visible absorption spectrum measured with a Shimadza UV 2101-double beam spectrophotometer using the solvent as reference. A control solution of Octocrylene is prepared and the UV-visible absorption spectrum measured. Each solution is then illuminated for two hours in the solar simulator. After illumination, the absorption spectrum is again measured for each solution.

[2] = UV-visible absorption spectrum; type: physicochemical
Protocol: as §1

[3] = DPPH test method (reducing activity of DPPH radical); type: biochemical; conditions: absorbance at 517 nm after 20 minutes
Protocol: A DPPH working solution is then prepared by diluting 100 mL of this concentrate to a final volume of 250 mL (100 μM/mL). A blank 13×100 mm borosilicate glass screw top tube of ethanol (USP) is used to zero the spectrometer (Milton Roy, Spectronic 20+) at 517 nm and a control tube of DPPH working solution is measured under identical conditions, and taken as 0% activity. […] After 20 minutes, the absorbance of each sample is read at 517 nm.
The percent reducing activity (%RA) is calculated using the following equation: [formula]
Where A(0) is the absorbance value of the DPPH working solution at 517nm zeroed against an ethanol blank and A(20) is the absorbance at 517 nm, 20 minutes after combining the antioxidant with the DPPH working solution.
The concentration of antioxidant (mg/ml) in the final assay mixture is calculated based on the dilution of respective aliquots of each compound in the final assay volume and %RA tabulated and plotted as percent activity at each concentration in the dilution series.
The antioxidant activity of selected compounds of this invention was determined from their reducing activity of a DPPH radical.

[4] = Stabilization of Avobenzone under solar simulator illumination (HPLC); type: physicochemical
Protocol: Individual solutions of selected sunscreen compounds (see Table 1) with Avobenzone were as follows. Each sunscreen compound was dissolved in 50% ethanol/50% H2O solution containing roughly an equal molar amount of Avobenzone. A similar solution containing Di-2-ethylhexyl-2,6-napthalene dicarboxylic acid (DENDA) and Avobenzone was also prepared. Each solution was then illuminated in the solar simulator as configured above for the photostability tests and aliquots of each solution were removed at 30-minute time intervals. These aliquots were injected into an HPLC and the loss of Avobenzone was followed with illumination time. The high performance liquid chromatograph (HPLC) used for all experiments reported therein incorporated a Spectra-Physics model P-200 pump with an Applied Biosystems model 785A UV-Visible detector with a Rheodyne manual injector incorporating a […] sample loop and a 150×4.6 mm reversed-phase C18 column (Alltech). All analyses were carried out under isocratic elution conditions using […] mixtures for the mobile phase at a flow rate of […] per minute. It was necessary to employ HPLC separation of Avobenzone from each of the sunscreen compounds to quantify Avobenzone due to the absorption spectra overlap with some of these compounds.

[5] = Product/Avobenzone (1:1, w/w), % Loss of Avobenzone by HPLC, solar simulator, 2 hrs

Photostability % Loss in 2 hrs [1] [%]	λmax, nm (Ethanol) [2] [nm]	Stabilization of Avobenzone % Loss of Avobenzone in 2 hrs [4] [%]	Stabilization of Avobenzone % Loss of Avobenzone in 2 hrs [4, 5]	SMILES	% Reducing Activity of DPPH Radical at 30 μg/ml [3] [%]
4.1	339		insignificant	COc1cc(C=C(C(C)=O)C(=O)OCCC(C)C)ccc1O [Iso-amyl-alpha-acetyl-3-methoxy-4-hydroxy-cinnamate]	22
3.2	341		insignificant	COc1cc(C=C(C(C)=O)C(=O)OCCC(C)C)cc(C(C)C)c1O [Isoamyl-alpha-acetyl-3-methoxy-4-hydroxy-5-isopropyl-cinnamate]	28

Further lines, the molecule ahead of its results:

SMILES	Photostability % Loss in 2 hrs [1] [%]	λmax, nm (Ethanol) [2] [nm]	Stabilization of Avobenzone % Loss of Avobenzone in 2 hrs [4] [%]	Stabilization of Avobenzone % Loss of Avobenzone in 2 hrs [4, 5]	% Reducing Activity of DPPH Radical at 30 μg/ml [3] [%]
COc1ccc(C(=O)CC(=O)c2ccc(C(C)(C)C)cc2)cc1 [Avobenzone, reference compound]	37	358			
CCCCC(CC)COC(=O)C(=Cc1ccc(O)c(OC)c1)C(=O)OCC(CC)CCCC (stereo not shown) [Di-(2-Ethylhexyl)-3-methoxy-4-hydroxy benzylidene malonate]		332	4.5		7.4
COc1cc(C=C(C(=O)OCCC(C)C)C(=O)OCCC(C)C)ccc1O [Di-isoamyl-3-methoxy-4-hydroxy benzylidene malonate]		333	3.8		9.5
CCCCC(CC)COC(=O)C(C#N)=C(c1ccccc1)c1ccccc1 (stereo not shown) [Octocrylene, reference compound]	2.8	303		1.5%	
CCCCC(CC)COC(=O)C(=Cc1cc(OC)c(O)c(C(C)C)c1)C(=O)OCC(CC)CCCC (stereo not shown) [di-(2-ethyhexyl)-3-methoxy-4-hydroxy-5-isopropyl-benzylidene malonate]		334	2.5		11.2
